Laboratory results: patent EP3839043A1, “SCREENING METHODS FOR COMPOUNDS MODULATING POLYAMINE TRANSPORT” (Katholieke Universiteit Leuven, priority 2019, dated 2021)

What was measured:
Purified ATP13A2 = biological target: T1, Purified ATP13A2 (Homo sapiens, UniProt Q9NQ11); conditions: 1 mM SPM
T1 sequence (Q9NQ11 1-1175 isoform Q9NQ11-3): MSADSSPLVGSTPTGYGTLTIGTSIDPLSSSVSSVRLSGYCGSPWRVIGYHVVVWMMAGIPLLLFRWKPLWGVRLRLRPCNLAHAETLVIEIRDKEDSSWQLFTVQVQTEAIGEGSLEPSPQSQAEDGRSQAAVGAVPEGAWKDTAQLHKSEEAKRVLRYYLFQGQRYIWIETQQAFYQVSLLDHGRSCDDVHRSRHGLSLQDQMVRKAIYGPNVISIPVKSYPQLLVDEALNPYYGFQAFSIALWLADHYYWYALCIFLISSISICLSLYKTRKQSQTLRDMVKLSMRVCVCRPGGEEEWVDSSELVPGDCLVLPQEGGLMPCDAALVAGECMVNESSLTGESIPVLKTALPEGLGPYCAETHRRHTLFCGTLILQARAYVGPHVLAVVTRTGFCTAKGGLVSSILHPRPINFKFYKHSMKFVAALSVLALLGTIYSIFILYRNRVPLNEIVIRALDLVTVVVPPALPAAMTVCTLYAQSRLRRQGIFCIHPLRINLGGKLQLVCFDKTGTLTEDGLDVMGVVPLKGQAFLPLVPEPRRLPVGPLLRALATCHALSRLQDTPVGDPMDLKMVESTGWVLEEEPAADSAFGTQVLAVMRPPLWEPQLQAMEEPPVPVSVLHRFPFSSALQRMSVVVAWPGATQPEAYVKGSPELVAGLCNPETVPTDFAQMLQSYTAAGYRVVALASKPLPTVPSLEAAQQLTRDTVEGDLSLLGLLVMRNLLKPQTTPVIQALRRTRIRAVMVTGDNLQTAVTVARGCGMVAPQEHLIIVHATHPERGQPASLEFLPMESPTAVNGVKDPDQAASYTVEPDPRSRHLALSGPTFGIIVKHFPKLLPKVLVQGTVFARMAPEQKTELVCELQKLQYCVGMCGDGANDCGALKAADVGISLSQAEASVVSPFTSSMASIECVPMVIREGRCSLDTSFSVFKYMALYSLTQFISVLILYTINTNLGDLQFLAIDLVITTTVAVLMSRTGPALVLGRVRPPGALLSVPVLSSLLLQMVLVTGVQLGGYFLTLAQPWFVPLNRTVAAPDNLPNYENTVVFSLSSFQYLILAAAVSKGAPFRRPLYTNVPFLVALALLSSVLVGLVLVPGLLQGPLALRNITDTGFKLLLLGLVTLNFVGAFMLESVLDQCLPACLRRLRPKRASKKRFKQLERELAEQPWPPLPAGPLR
Method: PLoS One 13, e0193228, (2018)].
In case of purified ATP13A2, 125 µM PA and 125 µM PI(3,5)P2 were included in the reaction mixture. To determine the sensitivity of the ATP13A2 phosphoenzyme to ATP or a combination of ATP and SPM, 30 s after adding ^32P-ATP, samples were incubated with non-radioactive ATP (5 mM in experiments using microsomes, 1 mM when purified ATP13A2 was used) and SPM (1 mM) before the reaction was stopped at indicated time points. The incorporation of ^32P was visualized following SDS-PAGE under acidic conditions and subsequently detected by autoradiography (microsomes) or liquid scintillation counting (purified ATP13A2) (Liquid Scintillation Analyzer TRI-CARB 2900TR).

SH-SY5Y cells = conditions: KO and KO/D508N cells; 10 µM SPM, 4 h
Method: FITC-dextran based lysosomal pH - SH-SY5Y cells were seeded in 12-well plates (1.0 X 10^5 cells per well) and allowed to adhere overnight. Cells were exposed to 50 µg/ml FITC-dextran for 72 h. Samples were then washed, placed in fresh media and treated with SPM (10 µM) alone or in combination with acidic nanoparticles (180 ng/ml, 1 h pre-incubation) for 4 h. Samples were then collected by centrifugation (450 x g, 5 min) and washed in PBS. Cells were finally resuspended in 500 µl of PBS containing 1% BSA and FITC dual emission assessed by flow cytometry (excitation 488 nm, emission 530 (BL1) and 600 (BL2)) using an Attune NXT flow cytometer (Invitrogen). The emission (BL1/BL2) of all samples were compared to a standard curve, whereby signals were obtained from control cells resuspended in monensin (100 µM) containing Britton Robinson buffer with increasing pH (3.0-8.0).

NCCCNCCCCNCCCN [Spermine, spermine]
dephosphorylation of purified WT after chase with cold ATP (Purified ATP13A2): clearly stimulates dephosphorylation | lysosomal pH (SH-SY5Y cells): further increased
